For orientation: Solubility means the concentration that dissolves in the medium under given conditions.

Series [1] can be described thus: Solid state stability of free base and salt forms under stress storage conditions. On Chemical (%): time not given here. On Chiral (%): time not given here.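 On Physical stability: Physical stability judged by XRPD check of crystalline form at end of study.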 The series is classed as physicochemical. The procedure: The solid samples were analyzed for both chemical and chiral stability.
Series [2] is described as follows: Estimated solubility of free base and salt forms in solvents (aliquot addition, visual). It is filed as physicochemical. The procedure:
The experiments were carried out by adding the test solvent in aliquots to weighed portions of solid. Whether dissolution had occurred was judged by visual inspection after addition of each solvent aliquot. Solubility numbers were calculated by dividing the total amount of solvent used to dissolve the sample by the weight of the sample. […] The solubility number is expressed as “greater than or equal to” if dissolution occurred on addition of the first solvent aliquot.

On to `O=C1CC[C@H](N2C(=O)c3cccc(NCc4ccc(CN5CC(N6CCOCC6)C5)cc4F)c3C2=O)C(=O)N1` [Free base], for which the “Chemical (%)” value is recorded as 98.44% in series [1] (40° C.); 98.56% in series [1] (40° C./80% RH); 95.80% in series [1] (60° C.); 98.10% in series [1] (60° C./75% RH); 85.68% in series [1] (70° C.); 93.29% in series [1] (70° C./80% RH). Besides, the “Chemical (%)” value in series [1] (Ambient) was found to be 98.95%. Further, the “Chiral (%)” value in series [1] (40° C.) was found to be 99.03%; in series [1] (40° C./80% RH), 99.02%; in series [1] (60° C.), 98.69%; in series [1] (60° C./75% RH), 83.04%; in series [1] (70° C.), 95.57%; in series [1] (70° C./80% RH), 52.01%. Besides, the “Chiral (%)” value in series [1] (Ambient) is reported as 99.16%. The Physical stability entry in series [1] (60° C.), in series [1] (60° C./75% RH), in series [1] (70° C.) and in series [1] (70° C./80% RH) was “Unstable” in each case.
In the case of `O=C1CC[C@H](N2C(=O)c3cccc(NCc4ccc(CN5CC(N6CCOCC6)C5)cc4F)c3C2=O)C(=O)N1` [Free Base], the “Solubility” value in series [2] (2-methyl tetrahydrofuran) is 30000 µg/mL; in series [2] (2-propanol), under 1000 µg/mL; in series [2] (95:5 2-PrOH/water), 2000 µg/mL; in series [2] (95:5 ACN/water) it was 27000 µg/mL; in series [2] (95:5 THF/water), 20000 µg/mL; in series [2] (95:5 acetone/water), 31000 µg/mL. Besides, the “Solubility” value is 31000 µg/mL in series [2] (N-methyl pyrrolidone); 52000 µg/mL in series [2] (acetone); 33000 µg/mL in series [2] (acetonitrile); 26000 µg/mL in series [2] (anisole); 59000 µg/mL in series [2] (dichloromethane); 34000 µg/mL in series [2] (dimethylacetamide). For the same compound, the “Solubility” value in series [2] (ethanol) was 1000 µg/mL; in series [2] (ethyl acetate) it was 33000 µg/mL; in series [2] (ethyl formate) it was 30000 µg/mL; in series [2] (isopropyl acetate), 6000 µg/mL; in series [2] (methanol), 2000 µg/mL; in series [2] (methyl ethyl ketone), 29000 µg/mL. For the same compound, the “Solubility” value in series [2] (methyl tert-butyl ether) is under 1000 µg/mL; in series [2] (nitromethane), 34000 µg/mL; in series [2] (tetrahydrofuran), 28000 µg/mL; in series [2] (toluene) it was 3000 µg/mL; in series [2] (water), under 1000 µg/mL.
As to `Cl.O=C1CC[C@H](N2C(=O)c3cccc(NCc4ccc(CN5CC(N6CCOCC6)C5)cc4F)c3C2=O)C(=O)N1` [HCl Salt], the “Solubility” value in series [2] (2-methyl tetrahydrofuran) was under 1000 µg/mL; in series [2] (2-propanol), under 1000 µg/mL; in series [2] (95:5 2-PrOH/water), under 1000 µg/mL; in series [2] (95:5 ACN/water) it was 3000 µg/mL; in series [2] (95:5 THF/water), 1000 µg/mL; in series [2] (95:5 acetone/water) it was under 1000 µg/mL. The “Solubility” value in series [2] (N-methyl pyrrolidone) is 1000 µg/mL; in series [2] (acetone), under 1000 µg/mL; in series [2] (acetonitrile), under 1000 µg/mL; in series [2] (anisole), under 1000 µg/mL; in series [2] (dichloromethane) it was under 1000 µg/mL; in series [2] (dimethylacetamide) it was 1000 µg/mL. Besides, the “Solubility” value was 38000 µg/mL in series [2] (dimethylsulfoxide); under 1000 µg/mL in series [2] (ethanol); under 1000 µg/mL in series [2] (ethyl acetate); under 1000 µg/mL in series [2] (ethyl formate); under 1000 µg/mL in series [2] (isopropyl acetate); 2000 µg/mL in series [2] (methanol). For the same compound, the “Solubility” value in series [2] (methyl ethyl ketone) is under 1000 µg/mL; in series [2] (methyl tert-butyl ether), under 1000 µg/mL; in series [2] (nitromethane), under 1000 µg/mL; in series [2] (tetrahydrofuran), under 1000 µg/mL; in series [2] (toluene) it was under 1000 µg/mL; in series [2] (water) it was 2000 µg/mL.

The record behind these values is US11578056B2, “Solid forms comprising (S)-2-(2,6-dioxopiperidin-3-yl)-4-((2-fluoro-4-((3-morpholinoazetidin-1-yl)methyl)benzyl)amino)isoindoline-1,3-dione and salts thereof, and compositions comprising and methods of using the same” (Celgene Corporation, priority 2019, dated 2023).
